Results: US20240059698A1 (Accutar Biotechnology Inc., priority 2022, published 2024)

Columns and labels:
Assay type in all cases: cell-based
HCC827 cells = assay: Cell growth inhibition (CellTiter-Glo), HCC827; conditions: Homo sapiens, 72 h, 3 days
Description: 2. Cell Growth Inhibition for HCC827, HCC827-SVD, HCC827-ASV, HCC827-YVMA, and A431.
HCC827(ATCC), HCC827-SVD, HCC827-ASV, and HCC827-YVMA cells were seeded in 96-well plates at 5000 cells/well in 90 μL of RPMI growth medium containing 10% FBS and 1% Penicillin Streptomycin. A431 (ATCC) cells were seeded in 96-well plates at 5000 cells/well in 90 μL of DMEM growth medium containing 10% FBS and 1% Penicillin Streptomycin. Cells were incubated at 37° C. overnight and then administered with 10 μL 10× test compounds prepared in the growth medium at various concentrations. After administration of the compounds, cells were incubated at 37° C. for 3 days. Before the CellTiter-Glo assay, the plates were equilibrated at room temperature for approximately 30 minutes. 100 ul of CellTiter-Glo reagent (Promega) was added to each well. The plates were then incubated at room temperature for 10 minutes and luminescence was recorded by the EnSight® multimode plate reader (PerkinElmer). Table 7 listed selected compounds in cellular growth assay.

[1] = system: HCC827-YVMA cells (human ERBB2 exon20 insertion mutant A775_G776ins YVMA); assay: Cell growth inhibition (CellTiter-Glo), HCC827-YVMA; conditions: 72 h, HCC827-YVMA cells, 3 days, CellTiter-Glo, read-out: Cell growth inhibition, GI50 (nM) HCC827-YVMA
Outline: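 HCC827 cells transduced with lentiviral codon-optimized mutant (ERBB2 A775_G776insYVMA or EGFR V769_D770insASV), endogenous EGFR knocked out by CRISPR, single clone selected. Cells seeded overnight in RPMI/10% FBS, then exposed to serially diluted compounds at 37 °C for 3 days; viability read by CellTiter-Glo luminescence.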

[2] = system: HCC827-SVD cells (human EGFR exon 20 insertion mutant D770_N771insSVD); assay: Cell growth inhibition (CellTiter-Glo), HCC827-SVD; conditions: 72 h, 3 days
Outline: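 HCC827 cells with endogenous EGFR knocked out and lentivirally expressing the insertion mutant (single clone) were seeded at 5000 cells/well in RPMI with 10% FBS. After overnight, compounds added; 3 days at 37 °C, then CellTiter-Glo luminescence.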

GI50 (HCC827 cells) [nM] | GI50 [1] [nM] | GI50 [2] [nM] | SMILES
> 1000 | 200 to 1000 | 200 to 1000 | C=CC(=O)N1CCC(c2c[nH]c3ncnc(Nc4ccc(Oc5ccnc(N6CCC(O)(C(F)(F)F)CC6)c5)cc4F)c23)CC1 [Compound 122, 1-(4-(4-((2-fluoro-4-((2-(4-hydroxy-4-(trifluoromethyl)piperidin-1-yl)pyridin-4-yl)oxy)phenyl)amino)-7H-pyrrolo[2,3-d]pyrimidin-5-yl)piperidin-1-yl)prop-2-en-1-one]
50 to 200 | 50 to 200 | 50 to 200 | C=CC(=O)N1CCC(c2c[nH]c3ncnc(Nc4ccc(OCc5nc(C(F)(F)F)cs5)c(Cl)c4)c23)CC1 [Compound 103, 1-(4-(4-((3-chloro-4-((4-(trifluoromethyl)thiazol-2-yl)methoxy)phenyl)amino)-7H-pyrrolo[2,3-d]pyrimidin-5-yl)piperidin-1-yl)prop-2-en-1-one]
50 to 200 | < 50 | 50 to 200 | C=CC(=O)N1CCC(c2c[nH]c3ncnc(Nc4ccc(OCc5cn6ccccc6n5)c(Cl)c4)c23)CC1 [Compound 102, 1-(4-(4-((3-chloro-4-(imidazo[1,2-a]pyridin-2-ylmethoxy)phenyl)amino)-7H-pyrrolo[2,3-d]pyrimidin-5-yl)piperidin-1-yl)prop-2-en-1-one]
< 50 | < 50 | < 50 | C=CC(=O)N1CCC(c2c[nH]c3ncnc(Nc4ccc(OCc5cc(C#N)ccn5)c(Cl)c4)c23)CC1 [Compound 100, 2-((4-((5-(1-acryloylpiperidin-4-yl)-7H-pyrrolo[2,3-d]pyrimidin-4-yl)amino)-2-chlorophenoxy)methyl)isonicotinonitrile]
< 50 | < 50 | < 50 | C=CC(=O)N1CCC(c2c[nH]c3ncnc(Nc4ccc(OCc5ccc(Cl)cn5)c(Cl)c4)c23)CC1 [Compound 126, 1-(4-(4-((3-chloro-4-((5-chloropyridin-2-yl)methoxy)phenyl)amino)-7H-pyrrolo[2,3-d]pyrimidin-5-yl)piperidin-1-yl)prop-2-en-1-one]
< 50 | < 50 | < 50 | C=CC(=O)N1CCC(c2c[nH]c3ncnc(Nc4ccc(OCc5ccccn5)c(Cl)c4F)c23)CC1 [Compound 106, 1-[4-[4-[3-chloro-2-fluoro-4-(2-pyridylmethoxy)anilino]-7H-pyrrolo[2,3-d]pyrimidin-5-yl]-1-piperidyl]prop-2-en-1-one]
50 to 200 | < 50 | < 50 | C=CC(=O)N1CCC(c2c[nH]c3ncnc(Nc4ccc(OCc5ccncc5)c(Cl)c4)c23)CC1 [Compound 127, 1-(4-(4-((3-chloro-4-(pyridin-4-ylmethoxy)phenyl)amino)-7H-pyrrolo[2,3-d]pyrimidin-5-yl)piperidin-1-yl)prop-2-en-1-one]
< 50 | < 50 | < 50 | C=CC(=O)N1CCC(c2c[nH]c3ncnc(Nc4ccc(OCc5cccnc5)c(Cl)c4)c23)CC1 [Compound 121, 1-(4-(4-((3-chloro-4-(pyridin-3-ylmethoxy)phenyl)amino)-7H-pyrrolo[2,3-d]pyrimidin-5-yl)piperidin-1-yl)prop-2-en-1-one]
50 to 200 | 50 to 200 | 200 to 1000 | C=CC(=O)N1CCC(c2c[nH]c3ncnc(Nc4ccc(OCc5ccc(C(F)(F)F)cn5)c(Cl)c4)c23)CC1 [Compound 112, 1-(4-(4-((3-chloro-4-((5-(trifluoromethyl)pyridin-2-yl)methoxy)phenyl)amino)-7H-pyrrolo[2,3-d]pyrimidin-5-yl)piperidin-1-yl)prop-2-en-1-one]
< 50 | < 50 | < 50 | C=CC(=O)N1CCC(c2c[nH]c3ncnc(Nc4ccc(OCc5ccccn5)cc4F)c23)CC1 [Compound 105, 1-(4-(4-((2-fluoro-4-(pyridin-2-ylmethoxy)phenyl)amino)-7H-pyrrolo[2,3-d]pyrimidin-5-yl)piperidin-1-yl)prop-2-en-1-one]
200 to 1000 | > 1000 | > 1000 | C=CC(=O)N1CCC(c2c[nH]c3ncnc(Nc4ccc(OCc5cnn(C(C)C)c5)c(Cl)c4)c23)CC1 [Compound 108, 1-(4-(4-((3-chloro-4-((1-isopropyl-1H-pyrazol-4-yl)methoxy)phenyl)amino)-7H-pyrrolo[2,3-d]pyrimidin-5-yl)piperidin-1-yl)prop-2-en-1-one]
> 1000 | 50 to 200 | 200 to 1000 | C=CC(=O)N1CCC(c2c[nH]c3ncnc(Nc4ccc(Oc5ccn(Cc6cc(Oc7ccccc7)ccn6)n5)cc4F)c23)CC1 [Compound 151, 1-(4-(4-((2-fluoro-4-((1-((4-phenoxypyridin-2-yl)methyl)-1H-pyrazol-3-yl)oxy)phenyl)amino)-7H-pyrrolo[2,3-d]pyrimidin-5-yl)piperidin-1-yl)prop-2-en-1-one]
> 1000 | 50 to 200 | 50 to 200 | C=CC(=O)N1CCC(c2n[nH]c3ncnc(Nc4ccc(Oc5ccnc(NC(=O)C6CCCC6)c5)cc4F)c23)CC1 [Compound 193, N-(4-(4-((3-(1-acryloylpiperidin-4-yl)-1H-pyrazolo[3,4-d]pyrimidin-4-yl)amino)-3-fluorophenoxy)pyridin-2-yl)cyclopentanecarboxamide]
50 to 200 | 50 to 200 | 50 to 200 | C=CC(=O)N1CCC(c2c[nH]c3ncnc(Nc4ccc(Oc5ccnc(-n6ccc(OC(C)C)n6)c5)cc4F)c23)CC1 [Compound 115, 1-(4-(4-((2-fluoro-4-((2-(3-isopropoxy-1H-pyrazol-1-yl)pyridin-4-yl)oxy)phenyl)amino)-7H-pyrrolo[2,3-d]pyrimidin-5-yl)piperidin-1-yl)prop-2-en-1-one]
< 50 | < 50 | < 50 | C=CC(=O)N1CCC(c2c[nH]c3ncnc(Nc4ccc(OCc5cc(Cl)ccn5)c(Cl)c4)c23)CC1 [Compound 117, 1-(4-(4-((3-chloro-4-((4-chloropyridin-2-yl)methoxy)phenyl)amino)-7H-pyrrolo[2,3-d]pyrimidin-5-yl)piperidin-1-yl)prop-2-en-1-one]
200 to 1000 | 50 to 200 | 200 to 1000 | C=CC(=O)N1CCC(c2c[nH]c3ncnc(Nc4ccc(OC5CCCN(S(=O)(=O)c6ccccc6)C5)cc4F)c23)CC1 (stereo in doubt) [Compound 124, (S)-1-(4-(4-((2-fluoro-4-((1-(phenylsulfonyl)piperidin-3-yl)oxy)phenyl)amino)-7H-pyrrolo[2,3-d]pyrimidin-5-yl)piperidin-1-yl)prop-2-en-1-one]
50 to 200 | 50 to 200 | 50 to 200 | C=CC(=O)N1CCC(c2c[nH]c3ncnc(Nc4ccc(OCc5nccn5C)c(Cl)c4)c23)CC1 [Compound 94, 1-(4-(4-((3-chloro-4-((1-methyl-1H-imidazol-2-yl)methoxy)phenyl)amino)-7H-pyrrolo[2,3-d]pyrimidin-5-yl)piperidin-1-yl)prop-2-en-1-one]
> 1000 | 50 to 200 | 50 to 200 | C=CC(=O)N1CCC(c2c[nH]c3ncnc(Nc4ccc(Oc5ccnc(N6CC7CC7C6)c5)cc4F)c23)CC1 (stereo not drawn) [Compound 131, 1-(4-(4-((4-((2-(3-azabicyclo[3.1.0]hexan-3-yl)pyridin-4-yl)oxy)-2-fluorophenyl)amino)-7H-pyrrolo[2,3-d]pyrimidin-5-yl)piperidin-1-yl)prop-2-en-1-one]
